Measurements taken from US9771333B2, “Quinazoline derivatives as TAM family kinase inhibitors” (SIGNALCHEM LIFESCIENCES CORP., priority 2013, dated 2017).

Experiments:
Assay type in all cases: biochemical
[1] = target: T1, human Axl (Homo sapiens, UniProt P30530); experiment: Kinase enzymatic activity assay (33P-radiolabeled phosphate transfer), Axl; details: recombinant human Axl (473-end), poly(4:1 glu:tyr) substrate, 30 minutes
T1 construct: GST (N); made in house; host or cells: Sf9 insect cells (baculovirus)
T1 sequence (P30530 473-894 limits assumed): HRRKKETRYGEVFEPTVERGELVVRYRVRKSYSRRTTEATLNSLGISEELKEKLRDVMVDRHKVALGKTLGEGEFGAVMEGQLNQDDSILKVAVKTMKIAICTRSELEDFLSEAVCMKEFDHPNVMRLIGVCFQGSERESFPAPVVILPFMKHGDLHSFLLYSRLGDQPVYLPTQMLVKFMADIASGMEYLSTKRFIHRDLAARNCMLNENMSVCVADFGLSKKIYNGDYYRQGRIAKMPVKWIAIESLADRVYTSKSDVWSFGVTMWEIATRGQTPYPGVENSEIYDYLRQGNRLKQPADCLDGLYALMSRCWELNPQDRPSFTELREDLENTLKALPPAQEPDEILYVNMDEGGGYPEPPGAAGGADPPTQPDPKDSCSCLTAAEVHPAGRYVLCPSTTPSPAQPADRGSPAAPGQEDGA
How it was run: (§1)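 GST-tagged human Tyro3 (455-end), Axl (473-end) and Mer (578-872) from Sf9 cells, with poly(Glu:Tyr) 4:1 substrate, in MOPS pH 7.2 buffer with MgCl2. [33P]-ATP added from a 250 µM cocktail; reaction 30 min at room temperature, filter-captured counts, duplicates. IC50 derived from % inhibition over a compound serial dilution.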

[2] = target: T2, human Mer (Homo sapiens, UniProt Q12866); experiment: Kinase enzymatic activity assay (33P-radiolabeled phosphate transfer), Mer; details: recombinant human Mer (578-872), poly(4:1 glu:tyr) substrate, 30 minutes
T2 construct: GST (N); made in house; host or cells: Sf9 insect cells (baculovirus)
T2 sequence (Q12866 578-872): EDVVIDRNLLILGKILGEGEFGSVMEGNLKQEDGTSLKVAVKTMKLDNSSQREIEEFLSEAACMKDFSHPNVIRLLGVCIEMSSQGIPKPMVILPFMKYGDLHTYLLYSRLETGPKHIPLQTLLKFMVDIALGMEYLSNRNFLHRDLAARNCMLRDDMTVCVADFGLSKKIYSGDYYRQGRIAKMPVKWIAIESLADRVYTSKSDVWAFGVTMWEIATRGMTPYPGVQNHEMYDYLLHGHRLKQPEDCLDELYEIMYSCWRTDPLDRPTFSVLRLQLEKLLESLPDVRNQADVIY
How it was run: as §1

[3] = target: T3, human Tyro3 (Homo sapiens, UniProt Q06418); experiment: Kinase enzymatic activity assay (33P-radiolabeled phosphate transfer), Tyro3; details: recombinant human Tyro3 (455-end), poly(4:1 glu:tyr) substrate, 30 minutes
T3 construct: GST (N); made in house; host or cells: Sf9 insect cells (baculovirus)
T3 sequence (Q06418 455-890 limits assumed): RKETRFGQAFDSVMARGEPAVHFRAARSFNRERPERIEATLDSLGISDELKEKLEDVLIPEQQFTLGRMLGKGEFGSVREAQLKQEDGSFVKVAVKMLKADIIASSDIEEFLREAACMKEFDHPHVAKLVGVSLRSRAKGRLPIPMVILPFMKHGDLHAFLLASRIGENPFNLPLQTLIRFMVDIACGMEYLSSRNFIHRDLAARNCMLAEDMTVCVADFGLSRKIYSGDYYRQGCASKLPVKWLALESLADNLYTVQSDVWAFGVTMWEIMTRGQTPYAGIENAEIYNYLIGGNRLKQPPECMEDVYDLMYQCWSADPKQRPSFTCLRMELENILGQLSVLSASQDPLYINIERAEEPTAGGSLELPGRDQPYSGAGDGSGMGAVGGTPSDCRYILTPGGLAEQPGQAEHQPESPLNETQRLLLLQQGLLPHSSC
How it was run: as §1

| Structure (SMILES) | IC50 [1] [nM] | IC50 [2] [nM] | IC50 [3] [nM] |
| --- | --- | --- | --- |
| COCCOc1cc(OCCN2CCN(C)CC2)cc2ncnc(Sc3ccc(Cl)cc3)c12 [Example 4, 4-((4-chlorophenyl)thio)-5-(2-methoxyethoxy)-7-(2-(4-methylpiperazin-1-yl)ethoxy)quinazoline] | > 10000 | > 10000 | 1000 to 10000 |
| OC[C@@H](O)COc1cc(OC2CCOCC2)c2c(Oc3ccc(F)cc3Cl)ncnc2c1 [Example 5, (R)-3-((4-(2-chloro-4-fluorophenoxy)-5-((tetrahydro-2H-pyran-4-yl)oxy)quinazolin-7-yl)oxy)propane-1,2-diol] | 1000 to 10000 | 500 to 1000 | 500 to 1000 |
| CC(C)Oc1ncnc2cc(OCC3CCN(C)CC3)cc(OC3CCOCC3)c12 [Example 6, 4-isopropoxy-7-((1-methylpiperidin-4-yl)methoxy)-5-((tetrahydro-2H-pyran-4-yl)oxy)quinazoline] | < 500 | < 500 | < 500 |
| CCN(CC)CCNc1cc(OC2CCOCC2)c2c(Nc3nc(C(F)(F)F)cs3)ncnc2c1 [Example 7, N^7-(2-(diethylamino)ethyl)-5-((tetrahydro-2H-pyran-4-yl)oxy)-N^4-(4-(trifluoromethyl)thiazol-2-yl)quinazoline-4,7-diamine] | 1000 to 10000 | > 10000 | > 10000 |
| CN1CCC(COc2cc(OC3CCOCC3)c3c(Nc4ncn[nH]4)ncnc3c2)CC1 [Example 8, 7-((1-methylpiperidin-4-yl)methoxy)-5-((tetrahydro-2H-pyran-4-yl)oxy)-N-(1H-1,2,4-triazol-5-yl)quinazolin-4-amine] | > 10000 | > 10000 | > 10000 |

Second part, the compound after the results:

| IC50 [1] [nM] | IC50 [2] [nM] | IC50 [3] [nM] | Structure (SMILES) |
| --- | --- | --- | --- |
| > 10000 | > 10000 | 500 to 1000 | COCCOc1cc(OCCN2CCN(C)CC2)cc2ncnc(Sc3ccc(F)cc3)c12 [Example 4.1, 4-((4-fluorophenyl)thio)-5-(2-methoxyethoxy)-7-(2-(4-methylpiperazin-1-yl)ethoxy)quinazoline] |
| 1000 to 10000 | > 10000 | 1000 to 10000 | COCCOc1cc(OCCN2CCN(C)CC2)cc2ncnc(Sc3cc(Cl)cc(Cl)c3)c12 [Example 4.2, 4-((3,5-dichlorophenyl)thio)-5-(2-methoxyethoxy)-7-(2-(4-methylpiperazin-1-yl)ethoxy)quinazoline] |
| 1000 to 10000 | > 10000 | 1000 to 10000 | COCCOc1cc(OCCN2CCN(C)CC2)cc2ncnc(Sc3cc(F)cc(F)c3)c12 [Example 4.3, 4-((3,5-difluorophenyl)thio)-5-(2-methoxyethoxy)-7-(2-(4-methylpiperazin-1-yl)ethoxy)quinazoline] |
| 1000 to 10000 | > 10000 | 1000 to 10000 | COCCOc1cc(OCCN2CCN(C)CC2)cc2ncnc(Sc3ccc(Cl)cc3Cl)c12 [Example 4.4, 4-((2,4-dichlorophenyl)thio)-5-(2-methoxyethoxy)-7-(2-(4-methylpiperazin-1-yl)ethoxy)quinazoline] |
| 1000 to 10000 | > 10000 | < 500 | COCCOc1cc(OCCN2CCN(C)CC2)cc2ncnc(Sc3ccc(F)c(Br)c3)c12 [Example 4.5, 4-((3-bromo-4-fluorophenyl)thio)-5-(2-methoxyethoxy)-7-(2-(4-methylpiperazin-1-yl)ethoxy)quinazoline] |
| 500 to 1000 | < 500 | < 500 | CN1CCC(COc2cc(OC3CCOCC3)c3c(Oc4ccc(F)cc4Cl)ncnc3c2)CC1 [Example 4.7, 4-(2-chloro-4-fluorophenoxy)-7-((1-methylpiperidin-4-yl)methoxy)-5-((tetrahydro-2H-pyran-4-yl)oxy)quinazoline] |
| > 10000 | 1000 to 10000 | 1000 to 10000 | Fc1ccc(Oc2ncnc3cc(OCCCN4CCOCC4)cc(N4CCOCC4)c23)c(Cl)c1 [Example 4.8, 4-(3-((4-(2-chloro-4-fluorophenoxy)-5-morpholinoquinazolin-7-yl)oxy)propyl)morpholine] |
| > 10000 | 1000 to 10000 | < 500 | CN1CCN(c2cc(OCCCN3CCOCC3)cc3ncnc(Oc4ccc(F)cc4Cl)c23)CC1 [Example 4.9, 4-(3-((4-(2-chloro-4-fluorophenoxy)-5-(4-methylpiperazin-1-yl)quinazolin-7-yl)oxy)propyl)morpholine] |
| 500 to 1000 | 500 to 1000 | < 500 | CN1CCC(COc2cc(OC3CCOCC3)c3c(Oc4cccc(C(F)(F)F)c4)ncnc3c2)CC1 [Example 4.10, 7-((1-methylpiperidin-4-yl)methoxy)-5-((tetrahydro-2H-pyran-4-yl)oxy)-4-(3-(trifluoromethyl)phenoxy)quinazoline] |
| < 500 | 500 to 1000 | < 500 | CN1CCC(COc2cc(OC3CCOCC3)c3c(Oc4ccc(C(F)(F)F)cc4)ncnc3c2)CC1 [Example 4.11, 7-((1-methylpiperidin-4-yl)methoxy)-5-((tetrahydro-2H-pyran-4-yl)oxy)-4-(4-(trifluoromethyl)phenoxy)quinazoline] |
